# Test results from PubChem BioAssay AID248 (DTP/NCI, 2004).
# Values joined by “and” are separate entries in the source; they are usually repeats but may differ in a detail not shown here. Identical values can stand only once. Inconclusive results and toxic doses are left out.
# System: L1210 leukemia ip in BDF1 mice, survival T/C
# Assay: NCI In Vivo Anticancer Drug Screen. Data for tumor model L1210 Leukemia (intraperitoneal) in B6D2F1 (BDF1) mice
# Settings: endpoint: mean survival time, higher = longer survival
# Outline: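 Mice bearing the transplanted tumor received compound or vehicle. Survival of the treated group was divided by that of the vehicle-treated control group to give the ratio.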
# [1] = dose: 100.0 mg/kg/injection, schedule: Q04DX003 (ip), vehicle: Klucel (hydroxypropylcellulose) (HPC)
# [2] = dose: 200.0 mg/kg/injection, schedule: Q04DX003 (ip), vehicle: Klucel (hydroxypropylcellulose) (HPC)
# [3] = dose: 400.0 mg/kg/injection, schedule: Q04DX003 (ip), vehicle: Klucel (hydroxypropylcellulose) (HPC)
# [4] = dose: 100.0 mg/kg/injection, schedule: Q01DX001 (ip), vehicle: saline
# [5] = dose: 100.0 mg/kg/injection, schedule: Q04DX003 (ip), vehicle: saline
# [6] = dose: 200.0 mg/kg/injection, schedule: Q04DX003 (ip), vehicle: saline
# [7] = dose: 100.0 mg/kg/injection, schedule: Q04DX003 (ip), vehicle: saline with Tween-80
# [8] = dose: 200.0 mg/kg/injection, schedule: Q04DX003 (ip), vehicle: saline with Tween-80
# [9] = dose: 400.0 mg/kg/injection, schedule: Q04DX003 (ip), vehicle: saline with Tween-80
# [10] = dose: 200.0 mg/kg/injection, schedule: Q01DX001 (ip), vehicle: saline
# [11] = dose: 400.0 mg/kg/injection, schedule: Q01DX001 (ip), vehicle: saline
# [12] = dose: 50.0 mg/kg/injection, schedule: Q01DX009 (ip), vehicle: saline with Tween-80
# [13] = dose: 100.0 mg/kg/injection, schedule: Q01DX009 (ip), vehicle: saline with Tween-80
# [14] = dose: 200.0 mg/kg/injection, schedule: Q01DX009 (ip), vehicle: saline with Tween-80
smiles,measurement,setting,value
CC(C)N(C)C(C1=CC(C)(C)c2ccccc2C1=O)c1ccccc1 (configuration not stated),T/C,[1],108 % of control
same,T/C,[2],101 % of control
same,T/C,[3],101 % of control
O=C(Nc1cccc(C(F)(F)F)c1)Oc1ccc(F)cc1Cl,T/C,"dose: 25.0 mg/kg/injection, schedule: Q01DX009 (ip), vehicle: gum acacia",100 % of control
same,T/C,"dose: 50.0 mg/kg/injection, schedule: Q01DX009 (ip), vehicle: gum acacia",98 % of control
same,T/C,"dose: 100.0 mg/kg/injection, schedule: Q01DX009 (ip), vehicle: gum acacia",88 % of control
CC(=O)NCCCc1c(C)nc(NC(C)=O)[nH]c1=O,T/C,"dose: 25.0 mg/kg/injection, schedule: Q01DX001 (ip), vehicle: saline",94 % of control
same,T/C,"dose: 50.0 mg/kg/injection, schedule: Q01DX001 (ip), vehicle: saline",108 % of control
same,T/C,[4],102 % of control
O=S1(=O)c2ccccc2NC(c2ccc(Cl)cc2)C1c1ccccc1 (configuration not stated),T/C,[5],95 % of control
same,T/C,[6],89 % of control
same,T/C,"dose: 400.0 mg/kg/injection, schedule: Q04DX003 (ip), vehicle: saline",97 % of control
CCOC(=O)N1CC2CCC(C1)N2C,T/C,"dose: 12.5 mg/kg/injection, schedule: Q04DX003 (ip), vehicle: saline",103 % of control
same,T/C,"dose: 25.0 mg/kg/injection, schedule: Q04DX003 (ip), vehicle: saline",106 % of control
same,T/C,"dose: 50.0 mg/kg/injection, schedule: Q04DX003 (ip), vehicle: saline",101 % of control
CC(C)(O)CCC1=C(O)c2ccccc2C(=O)C1=O,T/C,[1],100 % of control
same,T/C,[2],94 % of control
O=C1C=CC(=O)c2c1ccc1c2[nH]c2ccccc21,T/C,"dose: 100.0 mg/kg/injection, schedule: Q04DX002 (ip), vehicle: saline with Tween-80",113 % of control
same,T/C,"dose: 200.0 mg/kg/injection, schedule: Q04DX002 (ip), vehicle: saline with Tween-80",90 % of control
O=C(CCCl)Oc1ccc(Cl)cc1,T/C,[7],92 % of control
same,T/C,[8],93 % of control
same,T/C,[9],100 % of control
O=C(O)CCCC(=O)CCCC(=O)O,T/C,[4],98 % of control
same,T/C,[10],93 % of control
same,T/C,[11],104 % of control
CCCCS(=O)/C=C\S(=O)CCCC (configuration not stated),T/C,"dose: 100.0 mg/kg/injection, schedule: Q04DX002 (ip), vehicle: saline",117 % of control
same,T/C,"dose: 200.0 mg/kg/injection, schedule: Q04DX002 (ip), vehicle: saline",106 % of control
COC(=O)CC(=O)c1ccc(S(=O)(=O)F)cc1,T/C,"dose: 100.0 mg/kg/injection, schedule: Q01DX009 (ip), vehicle: Klucel (hydroxypropylcellulose) (HPC)",104 % of control
same,T/C,[1],98 % of control
same,T/C,"dose: 200.0 mg/kg/injection, schedule: Q01DX009 (ip), vehicle: Klucel (hydroxypropylcellulose) (HPC)",97 % of control
same,T/C,[2],96 % of control
same,T/C,"dose: 400.0 mg/kg/injection, schedule: Q01DX009 (ip), vehicle: Klucel (hydroxypropylcellulose) (HPC)",101 % of control
same,T/C,[3],100 % of control
COC(=O)C1OC1c1ccccc1OC (configuration not stated),T/C,[4],105 % of control
same,T/C,[10],102 % of control
same,T/C,[11],109 % of control
C=CS(=O)(=O)CCCCCCCC,T/C,"dose: 75.0 mg/kg/injection, schedule: Q01DX001 (ip), vehicle: saline",97 % of control
same,T/C,"dose: 75.0 mg/kg/injection, schedule: Q04DX003 (ip), vehicle: other",92 % of control
same,T/C,"dose: 150.0 mg/kg/injection, schedule: Q01DX001 (ip), vehicle: saline",89 % of control
same,T/C,"dose: 150.0 mg/kg/injection, schedule: Q04DX003 (ip), vehicle: other",100 % of control
same,T/C,"dose: 300.0 mg/kg/injection, schedule: Q01DX001 (ip), vehicle: saline",91 % of control
same,T/C,"dose: 300.0 mg/kg/injection, schedule: Q04DX003 (ip), vehicle: other",89 % of control
OCCCN=Cc1ccccc1O.OCCCN=Cc1ccccc1O.[Cu],T/C,"dose: 9.5 mg/kg/injection, schedule: Q01DX001 (ip), vehicle: other",92 % of control
same,T/C,"dose: 19.0 mg/kg/injection, schedule: Q01DX001 (ip), vehicle: other",97 % of control
same,T/C,"dose: 38.0 mg/kg/injection, schedule: Q01DX001 (ip), vehicle: other",100 % of control
same,T/C,"dose: 75.0 mg/kg/injection, schedule: Q01DX001 (ip), vehicle: other",114 % of control
COc1cc2c3c(c4cc(OC)c(OC)cc4c2cc1OC)CN1CCC[C@H]1C3,T/C,"dose: 4.0 mg/kg/injection, schedule: Q01DX015 (ip), vehicle: water",100 % of control
same,T/C,"dose: 6.0 mg/kg/injection, schedule: Q01DX015 (ip), vehicle: water",100 % of control
same,T/C,"dose: 6.25 mg/kg/injection, schedule: Q01DX015 (ip), vehicle: water",112 % of control
same,T/C,"dose: 8.0 mg/kg/injection, schedule: Q01DX Z (ip), vehicle: water",107 % of control
same,T/C,"dose: 9.0 mg/kg/injection, schedule: Q01DX015 (ip), vehicle: water",112 % of control
same,T/C,"dose: 12.0 mg/kg/injection, schedule: Q01DX Z (ip), vehicle: water",100 % of control
same,T/C,"dose: 14.0 mg/kg/injection, schedule: Q01DX015 (ip), vehicle: water",117 % of control
same,T/C,"dose: 15.0 mg/kg/injection, schedule: Q02DX Z (ip), vehicle: water",108 % of control
same,T/C,"dose: 25.0 mg/kg/injection, schedule: Q01DX015 (ip), vehicle: water",98 % of control
same,T/C,"dose: 30.0 mg/kg/injection, schedule: Q02DX Z (ip), vehicle: water",150 % of control
same,T/C,"dose: 250.0 mg/kg/injection, schedule: Q01DX Z (ip), vehicle: saline",154 % of control
O=C(CCl)N1CCN(C(=O)CCl)c2ccccc21,T/C,[4],94 % of control
same,T/C,[10],94 % of control
same,T/C,[11],97 % of control
O=S(=O)(CCO)CCO,T/C,"dose: 50.0 mg/kg/injection, schedule: Q01DX009 (ip), vehicle: saline",100 % of control
same,T/C,"dose: 100.0 mg/kg/injection, schedule: Q01DX009 (ip), vehicle: saline",100 % of control and 88 % of control
same,T/C,"dose: 200.0 mg/kg/injection, schedule: Q01DX009 (ip), vehicle: saline",96 % of control and 100 % of control
same,T/C,"dose: 400.0 mg/kg/injection, schedule: Q01DX009 (ip), vehicle: saline",97 % of control
O=C(NC(=S)Nc1ccccc1C(=O)O)c1ccccc1,T/C,"dose: 50.0 mg/kg/injection, schedule: Q01DX009 (ip), vehicle: saline sonified",96 % of control
same,T/C,"dose: 100.0 mg/kg/injection, schedule: Q04DX003 (ip), vehicle: saline sonified",95 % of control
same,T/C,"dose: 200.0 mg/kg/injection, schedule: Q01DX009 (ip), vehicle: saline sonified",94 % of control
same,T/C,"dose: 200.0 mg/kg/injection, schedule: Q04DX003 (ip), vehicle: saline sonified",95 % of control
[CH3][Sb]1([CH3])([I])[CH2]CCC[CH2]1,T/C,[5],97 % of control
same,T/C,[6],97 % of control
CSc1n[nH]c(=O)nc1SC,T/C,[4],104 % of control
same,T/C,[10],96 % of control
O=C(NC1CCCCC1)O/N=C/c1ccccn1,T/C,"dose: 100.0 mg/kg/injection, schedule: Q04DX003 (ip), vehicle: other",94 % of control
same,T/C,"dose: 200.0 mg/kg/injection, schedule: Q04DX003 (ip), vehicle: other",109 % of control
same,T/C,"dose: 400.0 mg/kg/injection, schedule: Q04DX003 (ip), vehicle: other",94 % of control
CC(C)=CCC/C(C)=C/CNc1ncnc2nc[nH]c12,T/C,[12],103 % of control
same,T/C,[13],100 % of control
same,T/C,"dose: 100.0 mg/kg/injection, schedule: Q04DX003 (ip), vehicle: acetone",94 % of control
same,T/C,[7],94 % of control
same,T/C,[14],100 % of control
same,T/C,"dose: 200.0 mg/kg/injection, schedule: Q04DX003 (ip), vehicle: acetone",101 % of control
same,T/C,[8],95 % of control
same,T/C,"dose: 400.0 mg/kg/injection, schedule: Q01DX009 (ip), vehicle: saline with Tween-80",105 % of control
same,T/C,[9],90 % of control
Cc1cc([N+](=O)[O-])c([N+](=O)[O-])cc1Cl,T/C,[12],115 % of control
same,T/C,"dose: 100.0 mg/kg/injection, schedule: Q01DX001 (ip), vehicle: Klucel (hydroxypropylcellulose) (HPC)",105 % of control
same,T/C,[13],115 % of control
same,T/C,"dose: 200.0 mg/kg/injection, schedule: Q01DX001 (ip), vehicle: Klucel (hydroxypropylcellulose) (HPC)",115 % of control
same,T/C,[14],109 % of control
CNc1ccccn1,T/C,"dose: 75.0 mg/kg/injection, schedule: Q01DX001 (ip), vehicle: carboxymethylcellulose (CMC)",95 % of control
same,T/C,"dose: 150.0 mg/kg/injection, schedule: Q01DX001 (ip), vehicle: carboxymethylcellulose (CMC)",97 % of control
same,T/C,"dose: 300.0 mg/kg/injection, schedule: Q01DX001 (ip), vehicle: carboxymethylcellulose (CMC)",101 % of control
